From PubChem BioAssay AID180 (DTP/NCI, 2004) come the findings set out here.

Several values for one entry are separate records, joined by “and”; a condition that tells them apart may be missing. Identical values can stand only once.

The subject of this assay is BDF1 mice, Adenocarcinoma 755 s.c., tumor weight T/C. Briefly: NCI In Vivo Anticancer Drug Screen. Data for tumor model Adenocarcinoma 755 (subcutaneous) in B6D2F1 (BDF1) mice. The conditions noted are these: endpoint: mean tumor weight, higher = larger tumour. A digest of the protocol: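 In vivo antitumor screen on a transplantable tumor line. Result equals the measure in compound-treated animals divided by the same measure in vehicle controls.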

Consider `C=C(C)C(=O)OCC1CO1` (centres undefined), for which the T/C is, setting by setting: (dose: 100.0 mg/kg/injection, schedule: Q01DX011 (ip), vehicle: water) 90 % of control; (dose: 200.0 mg/kg/injection, schedule: Q01DX006 (ip), vehicle: water) 95 % of control; (dose: 200.0 mg/kg/injection, schedule: Q01DX011 (ip), vehicle: other) 102 % of control; (dose: 200.0 mg/kg/injection, schedule: Q01DX011 (ip), vehicle: water) 77 % of control; (dose: 300.0 mg/kg/injection, schedule: Q01DX006 (ip), vehicle: water) 86 % of control.
Consider `CN1CC(=O)N=C1N`, for which the T/C runs as follows: (dose: 250.0 mg/kg/injection, schedule: Q#A X022 (ip), vehicle: water) 47 % of control; (dose: 375.0 mg/kg/injection, schedule: Q#A X022 (ip), vehicle: water) 88 % of control; (dose: 500.0 mg/kg/injection, schedule: Q#A X022 (ip), vehicle: water) 36 % of control; (dose: 750.0 mg/kg/injection, schedule: Q#A X022 (ip), vehicle: water) 67 % of control; (dose: 1250.0 mg/kg/injection, schedule: Q#A X022 (ip), vehicle: water) 72 % of control; (dose: 1500.0 mg/kg/injection, schedule: Q#A X022 (ip), vehicle: water) 68 % of control.
`CC1(C)O[C@@H]2C[C@H]3[C@@H]4CCC5=CC(=O)C=C[C@]5(C)[C@@]4(F)[C@@H](O)C[C@]3(C)[C@]2(C(=O)CO)O1`: the T/C (dose: 0.7 mg/kg/injection, schedule: Q01DX011 (sc), vehicle: steriod suspending solution) was 38 % of control; the T/C (dose: 3.0 mg/kg/injection, schedule: Q01DX011 (sc), vehicle: steriod suspending solution) is 53 % of control; the T/C (dose: 6.0 mg/kg/injection, schedule: Q01DX011 (sc), vehicle: steriod suspending solution) is 40 % of control.
Take `C[C@]12C[C@H](O)[C@H]3[C@@H](CCC4=CC(=O)CC[C@@]43C)[C@@H]1CC[C@@H]2C(=O)CO`: the T/C is, setting by setting: (dose: 10.0 mg/kg/injection, schedule: Q01DX011 (ip), vehicle: steriod suspending solution) 110 % of control; (dose: 10.0 mg/kg/injection, schedule: Q01DX011 (sc), vehicle: steriod suspending solution) 79 % of control; (dose: 20.0 mg/kg/injection, schedule: Q01DX011 (ip), vehicle: steriod suspending solution) 103 % of control; (dose: 20.0 mg/kg/injection, schedule: Q01DX011 (sc), vehicle: steriod suspending solution) 84 % of control; (dose: 40.0 mg/kg/injection, schedule: Q01DX011 (im), vehicle: steriod suspending solution) 67 % of control; (dose: 40.0 mg/kg/injection, schedule: Q01DX011 (ip), vehicle: steriod suspending solution) 81 % of control. Besides, the T/C by setting is: (dose: 40.0 mg/kg/injection, schedule: Q01DX011 (iv), vehicle: steriod suspending solution) 87 % of control; (dose: 40.0 mg/kg/injection, schedule: Q01DX011 (sc), vehicle: steriod suspending solution) 64 % of control; (dose: 50.0 mg/kg/injection, schedule: Q#A X022 (sc), vehicle: steriod suspending solution) 20 % of control; (dose: 80.0 mg/kg/injection, schedule: Q01DX011 (im), vehicle: steriod suspending solution) 49 % of control; (dose: 80.0 mg/kg/injection, schedule: Q01DX011 (ip), vehicle: steriod suspending solution) 95 % of control; (dose: 80.0 mg/kg/injection, schedule: Q01DX011 (iv), vehicle: steriod suspending solution) 64 % of control. Besides, the T/C is 58 % of control (dose: 80.0 mg/kg/injection, schedule: Q01DX011 (oral), vehicle: steriod suspending solution); 51 % of control (dose: 80.0 mg/kg/injection, schedule: Q01DX011 (sc), vehicle: steriod suspending solution); 38 % of control (dose: 100.0 mg/kg/injection, schedule: Q01DX011 (oral), vehicle: steriod suspending solution); 8 % of control (dose: 100.0 mg/kg/injection, schedule: Q#A X022 (sc), vehicle: steriod suspending solution); 51 % of control (dose: 150.0 mg/kg/injection, schedule: Q03DX004 (sc), vehicle: steriod suspending solution); 30 % of control (dose: 160.0 mg/kg/injection, schedule: Q01DX011 (im), vehicle: steriod suspending solution). Moreover, the T/C reads like this: (dose: 160.0 mg/kg/injection, schedule: Q01DX011 (ip), vehicle: steriod suspending solution) 72 % of control; (dose: 160.0 mg/kg/injection, schedule: Q01DX011 (iv), vehicle: steriod suspending solution) 42 % of control; (dose: 160.0 mg/kg/injection, schedule: Q01DX011 (sc), vehicle: steriod suspending solution) 31 % of control; (dose: 175.0 mg/kg/injection, schedule: Q07DX002 (sc), vehicle: steriod suspending solution) 104 % of control; (dose: 300.0 mg/kg/injection, schedule: Q03DX004 (sc), vehicle: steriod suspending solution) 24 % of control; (dose: 320.0 mg/kg/injection, schedule: Q01DX011 (im), vehicle: steriod suspending solution) 22 % of control. The T/C (dose: 320.0 mg/kg/injection, schedule: Q01DX011 (ip), vehicle: steriod suspending solution) was 42 % of control; the T/C (dose: 320.0 mg/kg/injection, schedule: Q01DX011 (oral), vehicle: steriod suspending solution) was 38 % of control; the T/C (dose: 320.0 mg/kg/injection, schedule: Q01DX011 (sc), vehicle: steriod suspending solution) is 16 % of control; the T/C (dose: 350.0 mg/kg/injection, schedule: Q07DX002 (sc), vehicle: steriod suspending solution) was 58 % of control; the T/C (dose: 400.0 mg/kg/injection, schedule: Q01DX011 (oral), vehicle: steriod suspending solution) was 22 % of control; the T/C (dose: 600.0 mg/kg/injection, schedule: Q03DX004 (sc), vehicle: steriod suspending solution) is 9 % of control. The T/C runs as follows: (dose: 640.0 mg/kg/injection, schedule: Q01DX011 (oral), vehicle: steriod suspending solution) 17 % of control and 18 % of control; (dose: 700.0 mg/kg/injection, schedule: Q07DX002 (sc), vehicle: steriod suspending solution) 20 % of control; (dose: 1200.0 mg/kg/injection, schedule: Q03DX004 (sc), vehicle: steriod suspending solution) 5 % of control; (dose: 1400.0 mg/kg/injection, schedule: Q07DX002 (sc), vehicle: steriod suspending solution) 16 % of control.
For `CCCn1cnc2c(SCC(=O)O)nc(N)nc21`, the T/C reads like this: (dose: 25.0 mg/kg/injection, schedule: Q01DX011 (ip), vehicle: methylcellulose (MC)) 58 % of control; (dose: 50.0 mg/kg/injection, schedule: Q01DX011 (ip), vehicle: methylcellulose (MC)) 37 % of control; (dose: 100.0 mg/kg/injection, schedule: Q01DX011 (ip), vehicle: methylcellulose (MC)) 46 % of control; (dose: 200.0 mg/kg/injection, schedule: Q01DX011 (ip), vehicle: methylcellulose (MC)) 36 % of control.
As to `Cc1cc2nc3c(=O)[nH]c(=O)nc-3n(CCOC(=O)CCC(=O)O)c2cc1C`, the T/C was 88 % of control (dose: 29.46 mg/kg/injection, schedule: Q01DX011 (ip), vehicle: carboxymethylcellulose (CMC)); 91 % of control (dose: 40.0 mg/kg/injection, schedule: Q01DX011 (ip), vehicle: carboxymethylcellulose (CMC)); 94 % of control (dose: 58.93 mg/kg/injection, schedule: Q01DX011 (ip), vehicle: carboxymethylcellulose (CMC)); 122 % of control (dose: 80.0 mg/kg/injection, schedule: Q01DX011 (ip), vehicle: carboxymethylcellulose (CMC)); 93 % of control (dose: 117.85 mg/kg/injection, schedule: Q01DX011 (ip), vehicle: carboxymethylcellulose (CMC)); 107 % of control (dose: 126.0 mg/kg/injection, schedule: Q01DX011 (ip), vehicle: carboxymethylcellulose (CMC)). Also, the T/C by setting is: (dose: 160.0 mg/kg/injection, schedule: Q01DX011 (ip), vehicle: carboxymethylcellulose (CMC)) 59 % of control; (dose: 235.7 mg/kg/injection, schedule: Q01DX011 (ip), vehicle: carboxymethylcellulose (CMC)) 90 % of control; (dose: 252.0 mg/kg/injection, schedule: Q01DX011 (ip), vehicle: carboxymethylcellulose (CMC)) 115 % of control.
Consider `COc1cc(C=O)cc(O)c1O`, for which the T/C (dose: 62.5 mg/kg/injection, schedule: Q01DX011 (ip), vehicle: methylcellulose (MC)) is 72 % of control; the T/C (dose: 125.0 mg/kg/injection, schedule: Q01DX011 (ip), vehicle: methylcellulose (MC)) is 58 % of control; the T/C (dose: 250.0 mg/kg/injection, schedule: Q01DX011 (ip), vehicle: methylcellulose (MC)) was 40 % of control.

As a reminder, the T/C is the ratio of treated to control.
